Laboratory results reported in patent publication US6787551B2, “Thiazolidinedione derivatives and pharmaceutical composition comprising the same” (Chong Kun Dang Pharmaceutical Corporation, priority 2002, dated 2004).
Like-named read-outs stand apart in the source and are kept apart here.

Legend:
[1] = tested on: mice with diabetes (KK/Ay); experiment: Blood glucose- and blood lipid-lowering action in mice with diabetes; format: in vivo; conditions: male KK/Ay mice, daily oral administration for 5 days; for Blood glucose (ED25): dose reducing blood glucose by 25%; for Triglyceride (ED25): dose reducing triglyceride by 25%
Procedure: Male mice with diabetes (KK/Ay: 10 weeks old, 5 animals/group) were housed and given free access to water and food. The animals received a daily oral administration of the test compounds for 5 days. After the last dose, a blood sample was drawn via the orbital sinus.
The plasma was analyzed for blood glucose content using the Glucose-E kit (YEONGDONG PHARMACEUTICAL CO. LTD., Korea), and for triglyceride content using the Triglyceride kit (YEONGDONG PHARMACEUTICAL CO. LTD., Korea).

[2] = tested on: differentiated 3T3-L1 cell; experiment: 2-Deoxy-D-[2,6-3H] glucose uptake assay; format: cell-based; conditions: differentiated 3T3-L1 cells, 24 h with compound, 0.5 nM insulin, concentration giving 50% of maximum enhancement of insulin activation, read-out: 2-deoxyglucose uptake (EC50 nM)
Procedure: 1) 2-Deoxy-D-[2,6-3H] glucose uptake assay (in differentiated 3T3-L1 cell)
Undifferentiated adipocyte 3T3-L1 cells were inoculated in a 24-well plate and cultivated in a CO2 incubator at 37° C. To induce differentiation of the undifferentiated adipocytes, the cells were then incubated in a differentiation medium. After adding a certain concentration of each of the test compounds to the medium, the cells were again incubated for 24 hours. After removing the medium, the cells were washed with phosphate buffer, and 0.5 nM of insulin in phosphate buffer was added to the washed cells, followed by incubation for 40 minutes. Then, 0.5 uCi of 2-deoxy-D-[2,6-3H] glucose per well was again added to the cells, which were let stand for 4 minutes. Then, the cells were washed with phosphate buffer, and cell lysis buffer was added, so as to dissolve the cell membranes. The cell sample was placed into a liquid scintillation cocktail solution. The radioactivity of the sample was counted by a liquid scintillation counter.

3T3-L1 cells = experiment: Triglyceride accumulation assay; format: cell-based; conditions: 4 days with compound, concentration giving 50% of maximum enhancement of rosiglitazone activation
Procedure: 2) Triglyceride accumulation assay (in 3T3-L1 cells)
Undifferentiated adipocyte 3T3-L1 cells were inoculated in a 24-well plate and cultivated in a CO2 incubator at 37° C. To induce differentiation of the undifferentiated adipocytes, the cells were then incubated in a differentiation medium for 48 hours. After adding a certain concentration of each of the test compounds to the differentiation medium, the cells were again incubated for 4 days. Then, the final cell sample was placed into 200 μl of 2-propanol. The amount of triglyceride in the cells were measured by Triglyceride Kit [YEONGDONG PHARMACEUTICAL CO. LTD., Korea] commercially available.

[3] = tested on: primary cultured rat hepatocytes; experiment: Cytotoxicity assay in primary cultured rat hepatocytes (neutral red); conditions: for Safety index (TC25 nM/EC50 nM): TC25 in hepatocyte cytotoxicity assay / EC50 in triglyceride accumulation assay; for Cytotoxicity in hepatocyte (TC25 uM): primary rat hepatocytes, 24 h, neutral red, 25% toxic concentration
Procedure: Hepatocytes isolated from rat were inoculated in a collagen-coated 24 well plate and was incubated in a CO2 incubator at 37° C. for 24 hours. Then, a certain concentration of each of the test compounds was added, and the cells were again incubated for 24 hours. The cells were then incubated in a 0.4% neutral red containing medium for 4 hours and washed once with phosphate buffer. 0.5 ml of a solution of 1% acetic acid-50% ethanol was added to the cells, which were let stand. 200 ul of the cell sample was taken and absorbance was measured at 570 nm. The cytotoxicity assay performed on hepatocytes was measured as 25% toxic concentration (TC25, uM). Then, the safety index, i.e. the TC25 value in the cytotoxicity assay in hepatocyte/the EC50 value in the triglyceride accumulation assay, was calculated.

Compound	Blood glucose (ED25) [1]	Triglyceride (ED25) [1]	EC50 [2]	EC50 (3T3-L1 cells)	Safety index (TC25 nM/EC50 nM) [3]	Cytotoxicity in hepatocyte (TC25 uM) [3]	EC50 ([2]; Mus musculus)	EC50 (3T3-L1 cells; Mus musculus, 96 h)
5-(4-[2-(N-methyl-N-2-(4-(4-isopropyl)pyridinyl)amino)ethoxy]benzyl)-2,4-thiazolidinedione [Ex. 36]	3.5 mg/kg	14.9 mg/kg	20.9 nM	16.3 nM	4663	76000 nM		
5-(4-[2-(N-methyl-N-(2-(4-(4-chloro)phenoxy)pyridinyl)amino)ethoxy]benzyl)-2,4-thiazolidinedione [Ex. 34]	1.9 mg/kg	5.6 mg/kg	4 nM	1.5 nM	48667	73000 nM		
5-(4-[2-(N-methyl-N-(2-(4-(4-fluoro)phenoxy)pyridinyl)amino)ethoxy]benzyl)-2,4-thiazolidinedione [Ex. 33]	1.1 mg/kg	6.5 mg/kg	8.9 nM	5.6 nM	17679	99000 nM		
CN(CCOc1ccc(C=C2SC(=O)NC2=O)cc1)c1cc(Oc2ccccc2)ncn1 [Ex. 1]	4.0 mg/kg	30 mg/kg	58 nM	38 nM	2578	98000 nM		
CN(CCOc1ccc(C=C2SC(=O)NC2=O)cc1)c1cc(Oc2ccc(Cl)cc2)ncn1 [Ex. 5, 5-(4-[2-(N-methyl-N-(6-(4-(4-chloro)phenoxy)pyrimidinyl)amino)ethoxy]benzylidene)-2,4-thiazolidinedione]	4.0 mg/kg	28 mg/kg	45 nM	35 nM	2657	93000 nM		
CCc1ccc(Oc2cc(N(C)CCOc3ccc(C=C4SC(=O)NC4=O)cc3)ncn2)cc1 [Ex. 9, 5-(4-[2-(N-methyl-N-(6-(4-(4-ethyl)phenoxy)pyrimidinyl)amino)ethoxy]benzylidene)-2,4-thiazolidinedione]	4.1 mg/kg	29 mg/kg	55.2 nM	29.9 nM	3010	90000 nM		
CN(CCOc1ccc(C=C2SC(=O)NC2=O)cc1)c1cc(Oc2ccc(-c3ccccc3)cc2)ncn1 [Ex. 12, 5-(4-[2-(N-methyl-N-(6-(4-(4-phenyl)phenoxy)pyrimidinyl)amino)ethoxy]benzylidene)-2,4-thiazolidinedione]	4.1 mg/kg	25 mg/kg	49.5 nM	46.8 nM	1816	85000 nM		
CN(CCOc1ccc(CC2SC(=O)NC2=O)cc1)c1cc(Oc2ccccc2)ncn1 (stereo not drawn) [Ex. 20, 5-(4-[2-(N-methyl-N-(6-(4-phenoxy)pyrimidinyl)amino)ethoxy]benzyl)-2,4-thiazolidinedione]	0.22 mg/kg	1.2 mg/kg	7.5 nM	2.7 nM	29630	80000 nM		
CN(CCOc1ccc(CC2SC(=O)NC2=O)cc1)c1cc(Oc2ccccc2)ccn1 (stereo not drawn) [Ex. 22, 5-(4-[2-(N-methyl-N-(2-(4-phenoxy)pyridinyl)amino)ethoxy]benzyl)-2,4-thiazolidinedione]	0.7 mg/kg	3.9 mg/kg	1.8 nM	0.54 nM	137037	74000 nM		
CN(CCOc1ccc(CC2SC(=O)NC2=O)cc1)c1cc(Oc2ccc(F)cc2)ncn1 (stereo not drawn) [Ex. 23, 5-(4-[2-(N-methyl-N-(6-(4-(4-fluoro)phenoxy)pyrimidinyl)amino)ethoxy]benzyl)-2,4-thiazolidinedione]	0.25 mg/kg	2.2 mg/kg	2.4 nM	0.81 nM	87654	71000 nM		
CN(CCOc1ccc(CC2SC(=O)NC2=O)cc1)c1cc(Oc2ccc(Cl)cc2)ncn1 (stereo not drawn) [Ex. 24, 5-(4-[2-(N-methyl-N-(6-(4-(4-chloro)phenoxy)pyrimidinyl)amino)ethoxy]benzyl)-2,4-thiazolidinedione]	0.18 mg/kg	0.6 mg/kg	0.2 nM	0.1 nM	750000	75000 nM		
COc1ccc(Oc2cc(N(C)CCOc3ccc(CC4SC(=O)NC4=O)cc3)ncn2)cc1 (stereo not drawn) [Ex. 25, 5-(4-[2-(N-methyl-N-(6-(4-(4-methoxy)phenoxy)pyrimidinyl)amino)ethoxy]benzyl)-2,4-thiazolidinedione]	0.15 mg/kg	0.5 mg/kg	0.2 nM	0.11 nM	727272	80000 nM		
CCOc1ccc(Oc2cc(N(C)CCOc3ccc(CC4SC(=O)NC4=O)cc3)ncn2)cc1 (stereo not drawn) [Ex. 26, 5-(4-[2-(N-methyl-N-(6-(4-(4-ethoxy)phenoxy)pyrimidinyl)amino)ethoxy]benzyl)-2,4-thiazolidinedione]	0.8 mg/kg	4.3 mg/kg	14.4 nM	7.7 nM	12338	95000 nM		
CC(C)Oc1ccc(Oc2cc(N(C)CCOc3ccc(CC4SC(=O)NC4=O)cc3)ncn2)cc1 (stereo not drawn) [Ex. 27, 5-(4-[2-(N-methyl-N-(6-(4-(4-isopropoxy)phenoxy)pyrimidinyl)amino)ethoxy]benzyl)-2,4-thiazolidinedione]	0.8 mg/kg	4.5 mg/kg	35.5 nM	21.7 nM	3594	78000 nM		
CCc1ccc(Oc2cc(N(C)CCOc3ccc(CC4SC(=O)NC4=O)cc3)ncn2)cc1 (stereo not drawn) [Ex. 28, 5-(4-[2-(N-methyl-N-(6-(4-(4-ethyl)phenoxy)pyrimidinyl)amino)ethoxy]benzyl)-2,4-thiazolidinedione]	1.8 mg/kg	16.9 mg/kg	5.2 nM	2.1 nM	40476	85000 nM		
CC(C)c1ccc(Oc2cc(N(C)CCOc3ccc(CC4SC(=O)NC4=O)cc3)ncn2)cc1 (stereo not drawn) [Ex. 30, 5-(4-[2-(N-methyl-N-(6-(4-(4-isopropyl)phenoxy)pyrimidinyl)amino)ethoxy]benzyl)-2,4-thiazolidinedione]	2.1 mg/kg	21.2 mg/kg	13.3 nM	6.5 nM	11077	72000 nM		
CN(CCOc1ccc(CC2SC(=O)NC2=O)cc1)c1cc(Oc2ccc(-c3ccccc3)cc2)ncn1 (stereo not drawn) [Ex. 31]	3.2 mg/kg	12.6 mg/kg	20.5 nM	12.5 nM	5840	73000 nM		
COc1ccc(Oc2ccnc(N(C)CCOc3ccc(CC4SC(=O)NC4=O)cc3)c2)cc1 (stereo not drawn) [Ex. 35, 5-(4-[2-(N-methyl-N-(2-(4-(4-methoxy)phenoxy)pyridinyl)amino)ethoxy]benzyl)-2,4-thiazolidinedione]	2.5 mg/kg	9.1 mg/kg	19.3 nM	9.6 nM	10000	96000 nM		
CN(CCOc1ccc(CC2SC(=O)NC2=O)cc1)c1ccccn1 (stereo not drawn) [Rosiglitazone, reference compound]	4.1 mg/kg	More than 30 mg/kg			1489	70000 nM	75 nM	47 nM
